Source: ChEMBL document CHEMBL4673326, “Ligand-based optimization and biological evaluation of N-(2,2,2-trichloro-1-(3-phenylthioureido)ethyl)acetamide derivatives as potent intrinsically disordered protein c-Myc inhibitors” (Bioorg Med Chem Lett, 2021)
Active and inactive are the calls of the source. The calls are words filed in the database; no cut-off is given here.

Assays:
HL-60 [1] = assay: Antiproliferative activity against human HL-60 cells assessed as inhibition of cell proliferation incubated for 72 hrs; assay type: functional, cell-based; details: HL-60, 72 h
[2] = Antiproliferative activity against rat TGR-1 harboring c-Myc assessed as reduction in cell viability measured on day 3 by MTT assay; assay type: functional; details: TGR1, 72 h
HL-60 [3] = assay: Induction of apoptosis in human HL-60 cells at 1 to 20 uM measured after 24 hrs by FITC-Annexin-v/propidium iodide staining based flow cytometry; assay type: functional, cell-based; details: dose 1-20 µM
[4] = molecular target: Myc proto-oncogene protein (Homo sapiens) (UniProt P01106); assay: Induction of c-Myc degradation in human HL-60 cells assesses as decrease in c-Myc protein level measured after 24 hrs by Western blot analysis; assay type: cell-based; details: dose 3.125-25 µM
c-Myc/c-Max = c-Myc/c-Max (Homo sapiens, UniProt P01106); assay: (§1) Inhibition of Nanoluc-tagged c-Myc/Halo-tagged MAX (unknown origin) interaction expressed in HEK293T cells assessed as degradation measured after 4 to 6 hrs by NanoBRET assay; assay type: cell-based
[5] = molecular target: c-Myc/c-Max (Homo sapiens) (UniProt P01106+P61244); assay: as §1; assay type: cell-based; details: time 4-6 hrs
HL-60 [6] = assay: Cell cycle arrest in human HL-60 cells assessed as accumulation at S-phase at 3.125 to 6.25 uM measured after 24 hrs by propidium iodide staining based flow cytometry; assay type: functional; details: dose 3.125-6.25 µM
Daudi = assay: Antiproliferative activity against human Daudi assessed as reduction in cell viability measured after 2 hrs; assay type: functional, cell-based
ST486 = assay: Antiproliferative activity against human ST486 assessed as reduction in cell viability measured after 2 hrs; assay type: functional, cell-based; details: ST486, 2 h
[7] = Antiproliferative activity against human Mutu-1 assessed as reduction in cell viability measured after 2 hrs; assay type: functional; details: Mutu-1, 2 h

Chain of Myc proto-oncogene protein (Homo sapiens) (P01106 whole entry): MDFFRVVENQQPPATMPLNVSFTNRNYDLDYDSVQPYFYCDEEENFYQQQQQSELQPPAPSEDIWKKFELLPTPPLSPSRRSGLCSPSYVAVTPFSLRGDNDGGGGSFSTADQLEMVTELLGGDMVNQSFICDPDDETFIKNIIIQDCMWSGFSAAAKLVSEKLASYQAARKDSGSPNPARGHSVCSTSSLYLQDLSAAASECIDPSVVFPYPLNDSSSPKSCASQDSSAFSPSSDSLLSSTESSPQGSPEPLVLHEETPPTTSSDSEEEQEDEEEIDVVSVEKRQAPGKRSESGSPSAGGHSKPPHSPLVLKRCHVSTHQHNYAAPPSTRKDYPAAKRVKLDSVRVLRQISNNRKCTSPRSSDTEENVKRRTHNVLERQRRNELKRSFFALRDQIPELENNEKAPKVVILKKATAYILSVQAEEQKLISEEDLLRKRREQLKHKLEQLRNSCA
Chain of c-Myc/c-Max (Homo sapiens) (P01106 whole entry): as above
Chain of c-Myc/c-Max (Homo sapiens) (P61244 2-160 partner limits assumed): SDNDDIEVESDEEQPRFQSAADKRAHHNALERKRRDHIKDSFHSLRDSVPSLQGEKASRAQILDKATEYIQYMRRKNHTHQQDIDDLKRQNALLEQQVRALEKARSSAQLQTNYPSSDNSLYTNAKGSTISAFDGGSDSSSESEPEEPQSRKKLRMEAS
Chain of c-Myc/c-Max (P01106 whole entry): as the sequence (P01106 whole entry) above
Chain of c-Myc/c-Max (P61244 whole entry, further chain): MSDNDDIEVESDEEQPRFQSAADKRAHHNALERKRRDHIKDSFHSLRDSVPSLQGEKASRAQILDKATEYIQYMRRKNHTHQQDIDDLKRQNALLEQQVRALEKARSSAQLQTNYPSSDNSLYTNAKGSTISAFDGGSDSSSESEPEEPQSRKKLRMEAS

SMILES	EC50 (HL-60 [1])	other results
COC(=O)c1ccc(NC(=S)NC(NC(=O)c2cccc3ccccc23)C(Cl)(Cl)Cl)cc1 (stereo not drawn)	7.3 µM	
Cc1ccccc1N=C(S)NC(NC(=O)CF)C(Cl)(Cl)Cl (stereo not drawn)	> 100 µM	
O=C(NCNC(=S)Nc1ccc(Cl)cc1)c1ccccc1	> 50 µM	
O=C(CF)NC(NC(=S)Nc1ccc(Cl)cc1)C(Cl)(Cl)Cl (stereo not drawn)	24.8 µM	
O=C(Cc1ccccc1)NC(NC(=S)Nc1ccc(Cl)c(Cl)c1)C(Cl)(Cl)Cl (stereo not drawn)	32.5 µM	
Cc1ccc(N=C(S)NC(NC(=O)c2ccccc2)C(Cl)(Cl)Cl)c(C)c1 (stereo not drawn)	8.1 µM	
O=C(NC(NC(=S)Nc1cccc(Cl)c1)C(Cl)(Cl)Cl)OCc1ccccc1 (stereo not drawn)	8.3 µM	
CCOC(=O)c1cnn(-c2ccccc2)c1NC(=O)c1cc2nc(-c3ccco3)cc(C(F)(F)Cl)n2n1		EC50 [2]: 0.25 µM
O=C(NC(NC(=S)Nc1cccc2ccccc12)C(Cl)(Cl)Cl)OCc1ccccc1 (stereo not drawn)	6.9 µM	
O=C(/C=C/c1ccccc1)NC(NC(=S)Nc1cccc2ccccc12)C(Cl)(Cl)Cl (stereo not drawn)	3.4 µM	
Cc1ccc(NC(S)=NC(NC(=O)N(C)C)C(Cl)(Cl)Cl)cc1 (stereo not drawn)	> 50 µM	
Cc1ccccc1C(=O)NC(NC(=S)Nc1ccccc1)C(Cl)(Cl)Cl (stereo not drawn)	10.8 µM	
O=C(NC(NC(=S)Nc1ccc(Cl)cc1Cl)C(Cl)(Cl)Cl)c1ccccc1 (stereo not drawn)	9.1 µM	
O=C(CF)NC(NC(=S)Nc1ccccc1Cl)C(Cl)(Cl)Cl (stereo not drawn)	> 50 µM	
O=C(NC(NC(=S)Nc1ccc(I)cc1)C(Cl)(Cl)Cl)c1cccc(I)c1 (stereo not drawn)	3.3 µM	Activity (HL-60 [3]): Active; Activity [4]: Dose-dependent effect; EC50 (c-Myc/c-Max): 29.1 µM; inhibition [5]: Dose-dependent effect; Activity (HL-60 [6]): Active
Cc1ccccc1C(=O)NC(NC(=S)Nc1ccc(Cl)c(Cl)c1)C(Cl)(Cl)Cl (stereo not drawn)	4.5 µM	

SMILES	EC50 (HL-60 [1])	other results
COc1ccccc1NC(=S)NC(NC=O)C(Cl)(Cl)Cl (stereo not drawn)	> 100 µM	
CCOc1ccc2nc3cc(/N=N/c4ccc(N)nc4N)ccc3c(N)c2c1		EC50 (Daudi): 0.5 µM; EC50 (ST486): 0.5 µM; EC50 [7]: 0.5 µM
O=C(NC(NC(=S)Nc1ccc(Cl)cc1Cl)C(Cl)(Cl)Cl)OCc1ccccc1 (stereo not drawn)	10.6 µM	
Cc1cccc(NC(=S)NC(NC(=O)c2ccccc2)C(Cl)(Cl)Cl)c1 (stereo not drawn)	10.6 µM	
CC(=O)Nc1ccc(NC(=S)NC(NC(=O)c2ccccc2C)C(Cl)(Cl)Cl)cc1 (stereo not drawn)	> 50 µM	
O=C(NC(NC(=S)Nc1ccc(Cl)cc1)C(Cl)(Cl)Cl)c1ccccc1Cl (stereo not drawn)	5.9 µM	
Cc1ccccc1C(=O)NC(NC(=S)Nc1ccccc1I)C(Cl)(Cl)Cl (stereo not drawn)	13.8 µM	
CC(=O)NC(NC(=S)Nc1c(Cl)cc(Cl)cc1Cl)C(Cl)(Cl)Cl (stereo not drawn)	24 µM	
CCCCCCCCC(=O)NC(NC(=S)Nc1ccccc1C)C(Cl)(Cl)Cl (stereo not drawn)	> 100 µM	
Cc1cccc(NC(=S)NC(NC(=O)Cc2ccccc2)C(Cl)(Cl)Cl)c1 (stereo not drawn)	> 100 µM	
Cc1cccc(NC(=S)NC(NC(=O)CF)C(Cl)(Cl)Cl)c1 (stereo not drawn)	> 100 µM	
COC(=O)c1ccc(NC(=S)NC(NC(=O)c2ccccc2C)C(Cl)(Cl)Cl)cc1 (stereo not drawn)	14.3 µM	
O=C(NC(NC(=S)Nc1ccc(Cl)cc1)C(Cl)(Cl)Cl)c1ccccc1 (stereo not drawn)	5 µM	
Cc1ccc(C(=O)NC(NC(=S)Nc2cc(C(F)(F)F)ccc2Cl)C(Cl)(Cl)Cl)cc1 (stereo not drawn)	8.7 µM	
NS(=O)(=O)c1ccc(NC(=S)NC(NC(=O)c2ccccc2)C(Cl)(Cl)Cl)cc1 (stereo not drawn)	> 50 µM	

More lines, main results first:

EC50 (HL-60 [1])	SMILES	other results
8.2 µM	O=C(NC(NC(=S)Nc1ccc(Cl)c(Cl)c1)C(Cl)(Cl)Cl)OCc1ccccc1 (stereo not drawn)	
6.1 µM	O=C(NC(NC(=S)Nc1ccc(Br)cc1)C(Cl)(Cl)Cl)OCc1ccccc1 (stereo not drawn)	
6.1 µM	O=C(NC(NC(=S)Nc1ccc(Cl)cc1)C(Cl)(Cl)Cl)OCc1ccccc1 (stereo not drawn)	
17.2 µM	Cc1ccc(NC(=S)NC(NC(=O)c2ccc(Br)cc2)C(Cl)(Cl)Cl)cc1 (stereo not drawn)	
> 50 µM	COc1ccc(NC(=S)NC(NC(=O)OCc2ccccc2)C(Cl)(Cl)Cl)cc1 (stereo not drawn)	
11.7 µM	O=C(NC(NC(=S)Nc1ccc(F)cc1)C(Cl)(Cl)Cl)OCc1ccccc1 (stereo not drawn)	
42.8 µM	CCOC(=O)NC(NC(=S)Nc1c(Cl)cc(Cl)cc1Cl)C(Cl)(Cl)Cl (stereo not drawn)	
> 100 µM	CC(C)C(=O)NC(NC(=S)Nc1ccc(Cl)cc1)C(Cl)(Cl)Cl (stereo not drawn)	
33.7 µM	Cc1ccc(NC(=S)NC(NC(=O)CC(C)C)C(Cl)(Cl)Cl)cc1 (stereo not drawn)	
9.9 µM	CCOC(=O)NC(NC(=S)Nc1ccc(I)cc1)C(Cl)(Cl)Cl (stereo not drawn)	
16.7 µM	O=C(NC(NC(=S)Nc1ccccc1)C(Cl)(Cl)Cl)OCc1ccccc1 (stereo not drawn)	
> 50 µM	CCCCCC(=O)NC(NC(=S)Nc1ccc(C)cc1)C(Cl)(Cl)Cl (stereo not drawn)	
22.9 µM	Cc1cccc(NC(=S)NC(NC(=O)c2ccccc2C)C(Cl)(Cl)Cl)c1 (stereo not drawn)	
24.9 µM	Cc1ccc(NC(=S)NC(NC(=O)OCc2ccccc2)C(Cl)(Cl)Cl)cc1 (stereo not drawn)	
> 50 µM	CCOC(=O)NC(NC(=S)Nc1ccc(C)cc1)C(Cl)(Cl)Cl (stereo not drawn)	
> 50 µM	COc1ccc(NC(=S)NC(NC(=O)Cc2ccccc2)C(Cl)(Cl)Cl)cc1 (stereo not drawn)	
23.1 µM	COC(=O)c1ccccc1NC(=S)NC(NC(=O)c1ccc(C)cc1)C(Cl)(Cl)Cl (stereo not drawn)	
> 50 µM	Cc1ccc(NC(=S)NC(NC(=O)Cc2ccccc2)C(Cl)(Cl)Cl)cc1 (stereo not drawn)	
10.2 µM	COC(=O)c1ccc(NC(=S)NC(NC(=O)OCc2ccccc2)C(Cl)(Cl)Cl)cc1 (stereo not drawn)	
4.2 µM	Cc1ccc(NC(=S)NC(NC(=O)c2ccccc2)C(Cl)(Cl)Cl)cc1 (stereo not drawn)	
